From ChEMBL document CHEMBL4507316 (2021)

Tests used:
[1] = target: Ribosomal protein S6 kinase alpha-5 (Homo sapiens) (UniProt O75582); experiment: RPS6KA5 ProQinase selectivity panel; conditions: Compound concentration 1.0 uM
[2] = target: Fibroblast growth factor receptor 3 (Homo sapiens) (UniProt P22607); experiment: FGF-R3 wt ProQinase selectivity panel; conditions: Compound concentration 1.0 uM
[3] = tested on: Platelet-derived growth factor receptor alpha (Homo sapiens), P16234 [V561D]; experiment: PDGFR-alpha V561D ProQinase selectivity panel; conditions: Compound concentration 1.0 uM
Chain of Platelet-derived growth factor receptor alpha (Homo sapiens), P16234 [V561D] (P16234 whole entry V561D): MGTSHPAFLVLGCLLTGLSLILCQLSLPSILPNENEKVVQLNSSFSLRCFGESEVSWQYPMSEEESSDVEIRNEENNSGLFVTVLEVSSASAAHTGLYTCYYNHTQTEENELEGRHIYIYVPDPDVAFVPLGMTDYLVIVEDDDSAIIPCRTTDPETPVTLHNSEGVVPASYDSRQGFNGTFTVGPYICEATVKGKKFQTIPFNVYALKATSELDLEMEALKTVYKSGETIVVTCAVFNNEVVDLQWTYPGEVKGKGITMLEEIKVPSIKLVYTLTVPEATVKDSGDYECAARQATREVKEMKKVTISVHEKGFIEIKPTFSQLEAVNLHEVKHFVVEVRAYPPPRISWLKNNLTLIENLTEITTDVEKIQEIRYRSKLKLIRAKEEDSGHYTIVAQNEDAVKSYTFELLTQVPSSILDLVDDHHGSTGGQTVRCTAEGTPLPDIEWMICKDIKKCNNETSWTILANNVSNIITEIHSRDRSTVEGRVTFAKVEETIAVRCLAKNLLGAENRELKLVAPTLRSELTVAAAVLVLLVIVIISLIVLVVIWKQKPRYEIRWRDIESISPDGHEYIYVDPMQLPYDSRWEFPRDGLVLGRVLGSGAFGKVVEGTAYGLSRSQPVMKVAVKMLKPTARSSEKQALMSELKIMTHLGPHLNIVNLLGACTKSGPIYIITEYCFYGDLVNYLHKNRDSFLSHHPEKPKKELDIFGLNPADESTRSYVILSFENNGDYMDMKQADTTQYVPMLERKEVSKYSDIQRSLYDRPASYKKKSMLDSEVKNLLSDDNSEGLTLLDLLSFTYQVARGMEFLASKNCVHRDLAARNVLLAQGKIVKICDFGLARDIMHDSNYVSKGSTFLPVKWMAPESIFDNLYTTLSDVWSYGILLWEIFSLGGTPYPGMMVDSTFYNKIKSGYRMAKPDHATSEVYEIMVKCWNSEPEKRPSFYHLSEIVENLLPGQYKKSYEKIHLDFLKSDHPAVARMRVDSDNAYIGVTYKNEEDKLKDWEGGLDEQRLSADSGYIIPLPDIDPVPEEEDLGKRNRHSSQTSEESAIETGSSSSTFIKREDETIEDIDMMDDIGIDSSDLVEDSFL

[4] = tested on: Platelet-derived growth factor receptor alpha (Homo sapiens), P16234 [T674I]; experiment: PDGFR-alpha T674I ProQinase selectivity panel; conditions: Compound concentration 1.0 uM
Chain of Platelet-derived growth factor receptor alpha (Homo sapiens), P16234 [T674I] (P16234 whole entry T674I): as the sequence (P16234 whole entry V561D) above, with D561V, T674I counted along it

[5] = target: Interleukin-1 receptor-associated kinase 4 (Homo sapiens) (UniProt Q9NWZ3); experiment: IRAK4 ProQinase selectivity panel; conditions: Compound concentration 1.0 uM
[6] = target: Serine/threonine-protein kinase WNK2 (Homo sapiens) (UniProt Q9Y3S1); experiment: WNK2 ProQinase selectivity panel; conditions: Compound concentration 1.0 uM
[7] = target: Activin receptor type-1 (Homo sapiens) (UniProt Q04771); experiment: ACV-R1 ProQinase selectivity panel; conditions: Compound concentration 1.0 uM
[8] = target: Serine/threonine-protein kinase Nek6 (Homo sapiens) (UniProt Q9HC98); experiment: NEK6 ProQinase selectivity panel; conditions: Compound concentration 1.0 uM
[9] = target: Serine/threonine-protein kinase N2 (Homo sapiens) (UniProt Q16513); experiment: PRK2 ProQinase selectivity panel; conditions: Compound concentration 1.0 uM
[10] = target: Casein kinase I isoform epsilon (Homo sapiens) (UniProt P49674); experiment: CK1-epsilon ProQinase selectivity panel; conditions: Compound concentration 1.0 uM
Chain of Casein kinase I isoform epsilon (Homo sapiens) (P49674 whole entry, looked up, canonical isoform): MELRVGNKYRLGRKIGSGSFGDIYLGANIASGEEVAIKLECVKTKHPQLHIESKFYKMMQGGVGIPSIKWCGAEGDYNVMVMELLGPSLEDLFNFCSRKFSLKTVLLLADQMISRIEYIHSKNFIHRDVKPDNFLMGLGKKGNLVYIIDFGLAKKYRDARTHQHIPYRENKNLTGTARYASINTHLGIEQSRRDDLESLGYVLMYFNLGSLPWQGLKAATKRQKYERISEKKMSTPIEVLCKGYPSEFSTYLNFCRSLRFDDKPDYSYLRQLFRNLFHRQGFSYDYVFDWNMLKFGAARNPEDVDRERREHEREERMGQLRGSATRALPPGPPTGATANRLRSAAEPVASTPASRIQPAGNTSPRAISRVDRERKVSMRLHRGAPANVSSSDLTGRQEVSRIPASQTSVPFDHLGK

[11] = target: Homeodomain-interacting protein kinase 4 (Homo sapiens) (UniProt Q8NE63); experiment: HIPK4 ProQinase selectivity panel; conditions: Compound concentration 1.0 uM
[12] = target: Tyrosine-protein kinase Fgr (Homo sapiens) (UniProt P09769); experiment: FGR ProQinase selectivity panel; conditions: Compound concentration 1.0 uM
[13] = target: Dual specificity tyrosine-phosphorylation-regulated kinase 1A (Homo sapiens) (UniProt Q13627); experiment: DYRK1A ProQinase selectivity panel; conditions: Compound concentration 1.0 uM
[14] = target: Ephrin type-A receptor 5 (Homo sapiens) (UniProt P54756); experiment: EPHA5 ProQinase selectivity panel; conditions: Compound concentration 1.0 uM
[15] = target: Tyrosine-protein kinase Fes/Fps (Homo sapiens) (UniProt P07332); experiment: FES ProQinase selectivity panel; conditions: Compound concentration 1.0 uM
Chain of Tyrosine-protein kinase Fes/Fps (Homo sapiens) (P07332 whole entry): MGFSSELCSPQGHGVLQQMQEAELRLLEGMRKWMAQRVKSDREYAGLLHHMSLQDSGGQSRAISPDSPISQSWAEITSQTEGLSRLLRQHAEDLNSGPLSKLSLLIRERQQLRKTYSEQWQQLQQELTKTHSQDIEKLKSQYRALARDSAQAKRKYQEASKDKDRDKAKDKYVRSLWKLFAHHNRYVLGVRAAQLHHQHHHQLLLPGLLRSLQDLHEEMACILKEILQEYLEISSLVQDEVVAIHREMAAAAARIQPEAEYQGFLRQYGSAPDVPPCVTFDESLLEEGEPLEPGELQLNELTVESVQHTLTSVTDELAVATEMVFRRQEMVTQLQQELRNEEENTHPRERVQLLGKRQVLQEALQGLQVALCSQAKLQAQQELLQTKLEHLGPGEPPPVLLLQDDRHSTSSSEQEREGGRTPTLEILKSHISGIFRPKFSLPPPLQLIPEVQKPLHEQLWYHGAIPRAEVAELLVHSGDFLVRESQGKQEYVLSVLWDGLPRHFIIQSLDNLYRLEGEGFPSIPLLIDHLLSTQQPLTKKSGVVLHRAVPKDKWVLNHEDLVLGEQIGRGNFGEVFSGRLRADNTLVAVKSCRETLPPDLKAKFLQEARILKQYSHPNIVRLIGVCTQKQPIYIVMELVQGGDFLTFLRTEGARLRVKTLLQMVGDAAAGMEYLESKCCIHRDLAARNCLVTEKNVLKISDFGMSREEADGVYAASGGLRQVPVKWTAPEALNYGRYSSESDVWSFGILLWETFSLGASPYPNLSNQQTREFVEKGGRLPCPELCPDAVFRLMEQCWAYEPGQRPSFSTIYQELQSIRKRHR

[16] = target: Aurora kinase A (Homo sapiens) (UniProt O14965); experiment: Aurora-A ProQinase selectivity panel; conditions: Compound concentration 1.0 uM
[17] = target: MAP/microtubule affinity-regulating kinase 4 (Homo sapiens) (UniProt Q96L34); experiment: MARK4 ProQinase selectivity panel; conditions: Compound concentration 1.0 uM
[18] = target: Serine/threonine-protein kinase WNK3 (Homo sapiens) (UniProt Q9BYP7); experiment: WNK3 ProQinase selectivity panel; conditions: Compound concentration 1.0 uM
[19] = target: Ribosomal protein S6 kinase alpha-4 (Homo sapiens) (UniProt O75676); experiment: RPS6KA4 ProQinase selectivity panel; conditions: Compound concentration 1.0 uM
Chain of Ribosomal protein S6 kinase alpha-4 (Homo sapiens) (O75676 whole entry, looked up): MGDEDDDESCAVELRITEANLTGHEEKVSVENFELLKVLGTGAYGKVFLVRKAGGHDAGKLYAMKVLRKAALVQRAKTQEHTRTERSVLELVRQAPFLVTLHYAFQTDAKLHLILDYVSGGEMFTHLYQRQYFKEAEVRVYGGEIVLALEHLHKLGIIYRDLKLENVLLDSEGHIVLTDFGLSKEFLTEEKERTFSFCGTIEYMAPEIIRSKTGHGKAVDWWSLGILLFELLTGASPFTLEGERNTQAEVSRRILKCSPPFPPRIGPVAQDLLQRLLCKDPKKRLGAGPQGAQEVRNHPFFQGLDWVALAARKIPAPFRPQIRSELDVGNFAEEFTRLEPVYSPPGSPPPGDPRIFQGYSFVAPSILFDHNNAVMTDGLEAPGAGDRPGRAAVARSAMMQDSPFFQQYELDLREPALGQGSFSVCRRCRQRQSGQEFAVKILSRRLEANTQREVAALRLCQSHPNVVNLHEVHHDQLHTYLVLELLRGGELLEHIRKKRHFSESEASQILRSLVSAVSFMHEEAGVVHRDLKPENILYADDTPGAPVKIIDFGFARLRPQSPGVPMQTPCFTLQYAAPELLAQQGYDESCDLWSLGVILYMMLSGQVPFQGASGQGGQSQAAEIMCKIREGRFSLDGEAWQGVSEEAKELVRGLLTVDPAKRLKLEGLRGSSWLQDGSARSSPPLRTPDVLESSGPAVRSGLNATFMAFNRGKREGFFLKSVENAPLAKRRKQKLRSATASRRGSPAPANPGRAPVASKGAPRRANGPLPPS

[20] = tested on: Leucine-rich repeat serine/threonine-protein kinase 2 (Homo sapiens), Q5S007 [G2019S]; experiment: LRRK2 G2019S ProQinase selectivity panel; conditions: Compound concentration 1.0 uM
[21] = target: Death-associated protein kinase 2 (Homo sapiens) (UniProt Q9UIK4); experiment: DAPK2 ProQinase selectivity panel; conditions: Compound concentration 1.0 uM
[22] = target: Tyrosine-protein kinase Blk (Homo sapiens) (UniProt P51451); experiment: BLK ProQinase selectivity panel; conditions: Compound concentration 1.0 uM
[23] = target: Alpha-1B adrenergic receptor (Homo sapiens) (UniProt P35368); conditions: Compound concentration 10.0 uM
[24] = target: Lymphokine-activated killer T-cell-originated protein kinase (Homo sapiens) (UniProt Q96KB5); experiment: PBK ProQinase selectivity panel; conditions: Compound concentration 1.0 uM
[25] = target: 5-hydroxytryptamine receptor 6 (Homo sapiens) (UniProt P50406); conditions: Compound concentration 10.0 uM
[26] = target: Myosin light chain kinase (Homo sapiens) (UniProt Q32MK0); experiment: MYLK3 ProQinase selectivity panel; conditions: Compound concentration 1.0 uM
[27] = target: D(1B) dopamine receptor (Homo sapiens) (UniProt P21918); conditions: Compound concentration 10.0 uM
[28] = tested on: Epidermal growth factor receptor (Homo sapiens), P00533 [UNDEFINED MUTATION]; experiment: EGF-R d752-759 ProQinase selectivity panel; conditions: Compound concentration 1.0 uM
[29] = target: 3-phosphoinositide-dependent protein kinase 1 (Homo sapiens) (UniProt O15530); experiment: PDK1 ProQinase selectivity panel; conditions: Compound concentration 1.0 uM
Chain of 3-phosphoinositide-dependent protein kinase 1 (Homo sapiens) (O15530 whole entry, looked up): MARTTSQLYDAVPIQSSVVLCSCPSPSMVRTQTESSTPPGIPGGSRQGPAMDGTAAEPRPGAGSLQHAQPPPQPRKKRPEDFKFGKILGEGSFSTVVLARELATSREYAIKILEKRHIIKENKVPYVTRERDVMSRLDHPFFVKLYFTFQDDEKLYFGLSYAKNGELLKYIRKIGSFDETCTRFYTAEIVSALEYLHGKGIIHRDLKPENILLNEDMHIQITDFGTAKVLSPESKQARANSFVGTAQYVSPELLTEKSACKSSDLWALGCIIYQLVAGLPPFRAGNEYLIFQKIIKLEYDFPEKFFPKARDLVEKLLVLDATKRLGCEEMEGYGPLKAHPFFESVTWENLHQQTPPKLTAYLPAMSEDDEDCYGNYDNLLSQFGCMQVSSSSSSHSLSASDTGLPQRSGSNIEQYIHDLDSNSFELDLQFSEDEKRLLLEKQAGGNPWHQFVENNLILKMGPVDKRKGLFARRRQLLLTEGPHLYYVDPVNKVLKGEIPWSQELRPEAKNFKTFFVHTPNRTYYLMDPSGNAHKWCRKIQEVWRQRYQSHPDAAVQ

[30] = target: 5-hydroxytryptamine receptor 3A (Homo sapiens) (UniProt P46098); conditions: Compound concentration 10.0 uM
[31] = target: Alpha-1A adrenergic receptor (Homo sapiens) (UniProt P35348); conditions: Compound concentration 10.0 uM
[32] = target: Serine/threonine-protein kinase VRK1 (Homo sapiens) (UniProt Q99986); experiment: VRK1 ProQinase selectivity panel; conditions: Compound concentration 1.0 uM
[33] = target: Discoidin domain-containing receptor 2 (Homo sapiens) (UniProt Q16832); experiment: DDR2 ProQinase selectivity panel; conditions: Compound concentration 1.0 uM
[34] = target: Rhodopsin kinase GRK7 (Homo sapiens) (UniProt Q8WTQ7); experiment: GRK7 ProQinase selectivity panel; conditions: Compound concentration 1.0 uM
[35] = target: Homeodomain-interacting protein kinase 2 (Homo sapiens) (UniProt Q9H2X6); experiment: HIPK2 ProQinase selectivity panel; conditions: Compound concentration 1.0 uM
[36] = target: Sodium-dependent dopamine transporter (Homo sapiens, UniProt Q01959); experiment: GPCRScan assay: inhibition of DAT; design: radioligand conc. used [nm] 3.6 – 16.0, parental cells stable HEK
Chain of Sodium-dependent dopamine transporter (Q01959 whole entry): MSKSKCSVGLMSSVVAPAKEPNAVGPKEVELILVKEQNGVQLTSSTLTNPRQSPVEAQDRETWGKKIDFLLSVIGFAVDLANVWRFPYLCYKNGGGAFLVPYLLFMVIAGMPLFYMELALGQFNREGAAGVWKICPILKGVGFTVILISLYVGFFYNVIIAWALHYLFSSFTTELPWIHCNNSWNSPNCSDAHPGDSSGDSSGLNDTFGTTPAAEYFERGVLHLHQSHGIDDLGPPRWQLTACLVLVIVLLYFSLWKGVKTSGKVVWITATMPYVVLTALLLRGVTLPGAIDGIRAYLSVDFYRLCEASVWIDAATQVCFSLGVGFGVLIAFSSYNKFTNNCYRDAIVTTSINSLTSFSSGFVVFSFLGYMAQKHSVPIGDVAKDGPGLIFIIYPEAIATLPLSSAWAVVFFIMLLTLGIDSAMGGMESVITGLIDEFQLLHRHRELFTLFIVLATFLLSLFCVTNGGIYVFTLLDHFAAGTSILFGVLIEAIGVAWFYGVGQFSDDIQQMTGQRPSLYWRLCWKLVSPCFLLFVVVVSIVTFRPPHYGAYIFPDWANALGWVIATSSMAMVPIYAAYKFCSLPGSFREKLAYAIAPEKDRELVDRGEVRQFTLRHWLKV

[37] = target: Serine/threonine-protein kinase 17A (Homo sapiens) (UniProt Q9UEE5); experiment: STK17A ProQinase selectivity panel; conditions: Compound concentration 1.0 uM
[38] = target: cAMP-dependent protein kinase catalytic subunit alpha (Homo sapiens) (UniProt P17612); experiment: PKA ProQinase selectivity panel; conditions: Compound concentration 1.0 uM
[39] = target: Protein kinase C beta type (Homo sapiens) (UniProt P05771); experiment: PKC-beta1 ProQinase selectivity panel; conditions: Compound concentration 1.0 uM
Chain of Protein kinase C beta type (Homo sapiens) (P05771 2-671 limits assumed): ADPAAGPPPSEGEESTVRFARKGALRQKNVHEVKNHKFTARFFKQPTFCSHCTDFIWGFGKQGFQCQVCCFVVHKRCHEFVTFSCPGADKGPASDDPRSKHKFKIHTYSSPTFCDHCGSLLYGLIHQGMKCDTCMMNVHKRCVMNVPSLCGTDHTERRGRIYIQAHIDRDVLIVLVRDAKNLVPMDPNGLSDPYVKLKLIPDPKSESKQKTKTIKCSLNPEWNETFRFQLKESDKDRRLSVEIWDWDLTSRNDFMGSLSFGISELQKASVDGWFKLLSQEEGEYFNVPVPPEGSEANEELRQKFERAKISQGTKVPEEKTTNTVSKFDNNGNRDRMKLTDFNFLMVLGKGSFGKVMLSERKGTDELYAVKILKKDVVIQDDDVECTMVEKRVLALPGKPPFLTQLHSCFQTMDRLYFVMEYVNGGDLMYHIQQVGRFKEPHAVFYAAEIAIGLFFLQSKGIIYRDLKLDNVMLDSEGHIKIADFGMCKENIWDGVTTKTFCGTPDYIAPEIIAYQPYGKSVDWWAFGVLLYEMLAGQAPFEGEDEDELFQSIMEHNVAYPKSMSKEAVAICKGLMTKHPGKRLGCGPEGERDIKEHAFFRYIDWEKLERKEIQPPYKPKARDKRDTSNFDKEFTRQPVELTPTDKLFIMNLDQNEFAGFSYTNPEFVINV

[40] = target: Kappa-type opioid receptor (Homo sapiens) (UniProt P41145); conditions: Compound concentration 10.0 uM
[41] = target: Protein-tyrosine kinase 2-beta (Homo sapiens) (UniProt Q14289); experiment: PYK2 ProQinase selectivity panel; conditions: Compound concentration 1.0 uM
[42] = target: MAP kinase-activated protein kinase 2 (Homo sapiens) (UniProt P49137); experiment: MAPKAPK2 ProQinase selectivity panel; conditions: Compound concentration 1.0 uM
[43] = target: Tyrosine-protein kinase JAK3 (Homo sapiens) (UniProt P52333); experiment: JAK3 ProQinase selectivity panel; conditions: Compound concentration 1.0 uM
[44] = tested on: Hepatocyte growth factor receptor (Homo sapiens), P08581 [D1228H]; experiment: MET D1228H ProQinase selectivity panel; conditions: Compound concentration 1.0 uM
[45] = target: Ribosomal protein S6 kinase alpha-2 (Homo sapiens) (UniProt Q15349); experiment: RPS6KA2 ProQinase selectivity panel; conditions: Compound concentration 1.0 uM
[46] = target: Cyclin-dependent kinase 5/CDK5 activator 1 (Homo sapiens) (UniProt Q00535+Q15078); experiment: CDK5/p25NCK ProQinase selectivity panel; type: protein-complex assay; conditions: Compound concentration 1.0 uM
[47] = target: Serine/threonine-protein kinase Chk2 (Homo sapiens) (UniProt O96017); experiment: CHK2 ProQinase selectivity panel; conditions: Compound concentration 1.0 uM
[48] = target: 5-hydroxytryptamine receptor 2A (Homo sapiens, UniProt P28223); conditions: Compound concentration 10.0 uM
[49] = target: Protein kinase C beta type (Homo sapiens) (UniProt P05771); experiment: PKC-beta2 ProQinase selectivity panel; conditions: Compound concentration 1.0 uM

## O=C1c2ccc(Nc3ccc(F)cc3F)cc2CCc2ccc(OC[C@H](O)CO)cc21 [Skepinone-L]
[1]
  % Residual activity with Skepinone-L: 77%
[2]
  % Residual activity with Skepinone-L: 102%
[3]
  % Residual activity with Skepinone-L: 91%
[4]
  % Residual activity with Skepinone-L: 97%
[5]
  % Residual activity with Skepinone-L: 104%
[6]
  % Residual activity with Skepinone-L: 95%
[7]
  % Residual activity with Skepinone-L: 94%
[8]
  % Residual activity with Skepinone-L: 97%
[9]
  % Residual activity with Skepinone-L: 95%
[10]
  % Residual activity with Skepinone-L: 86%
[11]
  % Residual activity with Skepinone-L: 116%
[12]
  % Residual activity with Skepinone-L: 100%
[13]
  % Residual activity with Skepinone-L: 96%
[14]
  % Residual activity with Skepinone-L: 132%
[15]
  % Residual activity with Skepinone-L: 121%
[16]
  % Residual activity with Skepinone-L: 99%
[17]
  % Residual activity with Skepinone-L: 96%
[18]
  % Residual activity with Skepinone-L: 100%
[19]
  % Residual activity with Skepinone-L: 107%
[20]
  % Residual activity with Skepinone-L: 77%
[21]
  % Residual activity with Skepinone-L: 88%
[22]
  % Residual activity with Skepinone-L: 107%
[23]
  inhibition: 5.52%
[24]
  % Residual activity with Skepinone-L: 113%
[25]
  inhibition: 14.8%
[26]
  % Residual activity with Skepinone-L: 85%
[27]
  inhibition: 21%
[28]
  % Residual activity with Skepinone-L: 83%
[29]
  % Residual activity with Skepinone-L: 97%
[30]
  inhibition: 6.53%
[31]
  inhibition: 21.8%
[32]
  % Residual activity with Skepinone-L: 88%
[33]
  % Residual activity with Skepinone-L: 102%
[34]
  % Residual activity with Skepinone-L: 107%
[35]
  % Residual activity with Skepinone-L: 104%
[36]
  Ki: > 10 µM
  pKi: < 5
[37]
  % Residual activity with Skepinone-L: 77%
[38]
  % Residual activity with Skepinone-L: 94%
[39]
  % Residual activity with Skepinone-L: 103%
[40]
  inhibition: -4%
[41]
  % Residual activity with Skepinone-L: 102%
[42]
  % Residual activity with Skepinone-L: 80%
[43]
  % Residual activity with Skepinone-L: 103%
[44]
  % Residual activity with Skepinone-L: 97%
[45]
  % Residual activity with Skepinone-L: 90%
[46]
  % Residual activity with Skepinone-L: 99%
[47]
  % Residual activity with Skepinone-L: 89%
[48]
  inhibition: 73.1%
[49]
  % Residual activity with Skepinone-L: 97%
